Assay results from patent publication US8895261B2, “Use of fluorescent saccharide-based derivative” (I-Shou University, priority 2012, dated 2014).

Test system: fibroblast 3T3 cells
Assay: Cellular uptake of fluorescent saccharide-based derivative in fibroblast 3T3 cells (fluorescence microscopy)
Format: cell-based
Settings: 100 μl of 0.5 mg/ml added to 3T3 cells, reacting overnight; FIG. 2G
Procedure: 1. Cultivate the fibroblast 3T3 cells in a DMEM medium (the DMEM medium contains 10% fetal bovine serum, 5 mM pyruvic acid, and antibiotics). The cells are cultivated in an incubator containing 5% CO2.
2. When the cells grow and occupy 80% of the bottom of the culture flask through cell division, suck out the culture medium and wash with 1×PBS, then add 0.05% trypsin to react for 1 minute in order to separate the cells, and add 5 ml culture medium, then centrifuge with […] for 10 minutes.
3. After centrifugation, remove the supernatant, then add 5 ml of culture medium, and evenly mix the cells and the culture medium. Take 30 μl of the cell solution and mix with 270 μl of trypan blue, then take 100 μl and place on a cytometer, and count the cell number using erythrocytomertry.
4. After counting the cells, adjust the cell number to 1×10^4 cells/ml, and take 1 ml of the cells and plant into a 24-well culture plate containing a glass slide, then place the cells in a cell incubator at 37° C. and 5% CO2. Incubate for 1 day, and then add 100 μl of 0.5 mg/ml glucosylglycine. After reacting overnight, wash twice with 1×PBS (10 minutes/turn).
5. Add 4% paraformaldehyde to the culture plate, and place in room temperature for twenty minutes to fix the cells, then remove the paraformaldehyde and wash 3 times with 1×PBS (10 minutes/turn).
6. […]

O=C(O)CNC1O[C@H](CO)[C@@H](O)[C@H](O)[C@H]1O (stereo partly drawn) [glucosylglycine, D-glucosylglycine]
cell uptake (cells emit fluorescence after being fed): uptakable by cells
